Assay results published in US5130425A, “Spiro-lactams and analogs thereof useful as aldose reductase inhibitors” (American Home Products Corporation, priority 1991, dated 1992).

Columns and labels:
aldose reductase = target: T1, aldose reductase (Bos taurus, UniProt P16116); test: In vitro aldose reductase inhibition (modified procedure of Hayman and Kinoshita, enzyme from bovine lens); assay type: biochemical
T1 construct: preparation of the enzyme from bovine lens; from tissue; host or cells: bovine lens
Description: Only two minor reagent changes were made: (a) the rinsing mixture was an aqueous 5% (w/v) trichloroacetic acid solution and (b) the stock solution was prepared by dissolving 25 mg of dulcitol in 100 mL of an aqueous trichloroacetic acid solution. [N.B.: For each experiment the average value found in the tissue from rats fed the glucose diet was subtracted from the individual values found in the corresponding tissue in galactose-fed rats to obtain the amount of polyol accumulated.] […] In the present case the procedure of Hayman and Kinoshita was modified in that the final chromatography step was omitted in the preparation of the enzyme from bovine lens.

[1] = tested on: galactitol (dulcitol) accumulation in tissues of galactosemic rats; test: Galactosemic rat test: lowering of galactitol (dulcitol) accumulation in lens, sciatic nerve and diaphragm; assay type: in vivo, rat (Sprague-Dawley, male); set-up: key to % Lowering Galactitol Accumulation In vivo, L: NS: not significant; conditions: 4 days, vs untreated galactosemic rats; for % Lowering Galactitol Accumulation In vivo, D: diaphragm; for % Lowering Galactitol Accumulation In vivo, L: lens
From the text: The aldose reductase inhibiting property of the compounds of this invention and the utilization of the compounds in preventing, diminishing and alleviating diabetic complications are demonstrable in experiments using galactosemic rats, see Dvornik et al., Science, 182, 1146 (1973). Such experiments are exemplified hereinbelow after the listing of the following general comments pertaining to these experiments:
(a) Four or more groups of six male rats, 50-70 g, Sprague-Dawley strain, were used. The first group, the control group, was fed a mixture of laboratory chow (rodent Laboratory Chow, Purina) and glucose at 20% (w/w %) concentration. An untreated galactosemic group was fed a similar diet in which galactose was substituted for glucose. The third group was fed a diet prepared by mixing a given amount of the test compound with the galactose containing diet. The concentration of galactose in the diet of the treated groups was the same as that for the untreated galactosemic group.
(b) After four days, the animals were killed by euthanization. Both the lens and sciatic nerve were removed, weighed and stored frozen for polyol determination.
(c) The polyol determination was performed by a modification of the procedure of M. Kraml and L. Cosyns, Clin. Biochem., 2,373 (1969). Only two minor reagent changes were made: (a) the rinsing mixture was an aqueous 5% (w/v) trichloroacetic acid solution and (b) the stock solution was prepared by dissolving 25 mg of dulcitol in 100 mL of an aqueous trichloroacetic acid solution. [N.B.: For each experiment the average value found in the tissue from rats fed the glucose diet was subtracted from the individual values found in the corresponding tissue in galactose-fed rats to obtain the amount of polyol accumulated.] The aldose reductase inhibiting effects of the compounds of formula (I) were also tested by employing an in vitro testing procedure similar to that described by S. Hayman and J. H. Kinoshita, J. Biol. Chem., 240, 877 (1965). In the present case the procedure of Hayman and Kinoshita was modified in that the final chromatography step was omitted in the preparation of the enzyme from bovine lens.
The figures under L, N, and D represent the percentage decrease of dulcitol accumulation in the tissues of the lens, sciatic nerve, and diaphragm, respectively, for treated rats as compared to untreated rats.

[2] = column headed 10^5 (concentration unit not given)
[3] = column headed 10^-6 (concentration unit not given)
[4] = column headed 10^-7 (concentration unit not given)

SMILES | % Inhibition In Vitro (aldose reductase; [2]) | % Inhibition In Vitro (aldose reductase; [3]) | % Inhibition In Vitro (aldose reductase; [4]) | % Lowering Galactitol Accumulation In vivo, D ([1]; 28 mg/kg/day in diet) | % Lowering Galactitol Accumulation In vivo, L ([1]; 28 mg/kg/day in diet) | % Lowering Galactitol Accumulation In vivo, D ([1]; 11 mg/kg/day in diet) | % Lowering Galactitol Accumulation In vivo, D ([1]; 49 mg/kg/day in diet) | % Lowering Galactitol Accumulation In vivo, L ([1]; 11 mg/kg/day in diet) | % Lowering Galactitol Accumulation In vivo, L ([1]; 49 mg/kg/day in diet)
CN1C(=O)c2ccc(Br)cc2C2(CC(=O)N2)C1=O (stereo not drawn) [Br CH3, 6'-bromo-2'-methylspiro[azetidine-2,4'(1'H)-isoquinoline]-1',3',4(2'H)-trione] | 96% | 77% | 16% | 86% | 36% | – | – | – | –
CN1C(=O)c2ccc(Cl)cc2C2(CC(=O)N2)C1=O (stereo not drawn) [Cl CH3, 6'-chloro-2'-methylspiro[azetidine-2,4'(1'H)-isoquinoline]-1',3',4(2'H)-trione] | 84% | 75% | 22% | – | – | 70% | 82% | NS | 66%
